What was measured:
[1] = Brain-to-plasma concentration ratio in rat after intravenous administration; format: in vivo; settings: brain and plasma, 15 minutes after intravenous administration
Experimental: At 15 minutes after intravenously administration of the test compound to the rats, the plasma and brain were collected. A 50% acetonitrile solution and an acetonitrile including internal standard material were added to the collected plasma. The collected brain was added to a 2-fold volume of PBS and homogenized. A 50% acetonitrile solution and an acetonitrile including internal standard material were added to the brain homogenate. The sample was centrifuged at 4° C. and 2150×g for 10 minutes, the supernatant was measured by LC-MS/MS, and the total concentration of the test compound in the brain (Cbrain) and the total concentration of the test compound in the plasma (Cplasma,t) were obtained. The brain-to-plasma concentrations ratio (Kp,brain) was calculated by the following equation.
(§1) The Kp,uu,CSF values and the Kp,brain values of ramelteon and some Example compounds of the present invention are shown in Table 4. Ex represents Example No. of the test compound. Unless otherwise specified, the Kp,uu,CSF was calculated using the fp values determined by an ultracentrifugation method. Further, N.T. represents Not Tested.

human MT1 receptor = biological target: T1, human MT1 receptor (Homo sapiens, UniProt P48039); assay: Activation of human MT1 receptor in receptor-expressing cells, intracellular Ca2+ by FLIPR; format: cell-based; settings: for EC50: HEK293EBNA1 cells stably expressing human MT1 and Gq/i chimeric G protein, Ca2+ FLIPR; for Emax: maximum reaction by ramelteon taken as 100%
T1 construct: expressed in transfected cells

human MT2 receptor = biological target: T2, human MT2 receptor (Homo sapiens, UniProt P49286); assay: Activation of human MT2 receptor in receptor-expressing cells, intracellular Ca2+ by FLIPR; format: cell-based; settings: for EC50: HEK293 cells stably expressing human MT2 and Gq/i chimeric G protein, Ca2+ FLIPR; for Emax: maximum reaction by ramelteon taken as 100%
T2 construct: expressed in transfected cells
T2 sequence (P49286 1-362): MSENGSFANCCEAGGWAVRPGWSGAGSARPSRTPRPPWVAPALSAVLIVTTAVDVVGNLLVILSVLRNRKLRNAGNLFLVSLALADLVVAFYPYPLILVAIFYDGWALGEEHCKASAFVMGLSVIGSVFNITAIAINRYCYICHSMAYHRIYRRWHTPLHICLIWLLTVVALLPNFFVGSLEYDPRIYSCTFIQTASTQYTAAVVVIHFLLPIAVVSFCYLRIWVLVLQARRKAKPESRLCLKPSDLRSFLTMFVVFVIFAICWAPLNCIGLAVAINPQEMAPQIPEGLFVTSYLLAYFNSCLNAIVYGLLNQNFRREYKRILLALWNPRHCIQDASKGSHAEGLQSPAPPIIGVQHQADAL

[2] = CSF-to-plasma unbound concentration ratio in rat after intravenous administration; format: in vivo; settings: CSF and plasma (unbound), iv, 15 minutes after intravenous administration
Experimental: A test compound (100 μg/mL, 50% acetonitrile solution) at 1% (v/v) with respect to the amount of the plasma was added to rat plasma, and dispensed to a sample for a supernatant and a sample for the plasma. The sample for a supernatant was ultracentrifuged at 436,000×g and 37° C. for 140 minutes, and the sample for the plasma was incubated at 37° C. for 140 minutes.
After 140 minutes, the sample for a supernatant after the ultracentrifugation and the sample for the plasma were taken, and mixed with the blank plasma or the blank supernatant, respectively. Acetonitrile including an internal standard material was added to each of the samples with the removal of protein, and after the centrifugation at 2150×g and 4° C. for 10 minutes the supernatant was injected into LC-MS/MS.
The unbound fraction in the plasma was calculated by the following equation.
To the plasma of a rat was added a test compound (0.2 mM, 50% acetonitrile solution) in an amount corresponding to 1% (v/v) of the plasma amount, and 200 μL of obtained plasma sample was filled into a plasma chamber of a RED device insert. A buffer chamber was filled with 350 μL of PBS, followed by performing equilibrium dialysis by stirring in a CO2 incubator at 37° C. for 16 hours. The sample after the completion of the equilibrium dialysis was recovered and the volume of the plasma sample was measured. To the plasma sample after the completion of the equilibrium dialysis were added PBS, a 20 mM ammonium formate buffer, and acetonitrile including an internal standard material. Similarly, to the PBS sample after the completion of the equilibrium dialysis was added a blank plasma, a 20 mM ammonium formate buffer, and acetonitrile including an internal standard material. This sample was left to stand at 4° C. for 30 minutes and then centrifuged 1500×g for 10 minutes, and the supernatant was measured by LC-MS/MS. The unbound fraction in the plasma was calculated by the following equation. fp=Cf/{(Cp−Cf)(V/V0)+Cf}
At 15 minutes after intravenously administration of the test compound to the rats, the plasma and CSF were collected. A 50% acetonitrile solution and an acetonitrile including internal standard material were added to the collected plasma or CSF. After centrifuging this sample at 4° C. and 2150×g for 10 minutes, the supernatant was measured by LC-MS/MS, and the total concentration of the test compound in the plasma (Cplasma,t) and the concentration of the test compound in CSF (CCSF) were obtained. The unbound concentration in the plasma (Cplasma,u) of the test compound and the CSF-to-plasma unbound concentration ratio (Kp,uu,CSF) of the test compound was calculated by the following equation.
as §1
(Ramelteon represents the values of Kp,uu,CSF after 10 minutes after the intravenous administration. Further, the Kp,uu,CSF of Examples 37 and 38 was calculated using the fp values determined by an equilibrium dialysis method. In addition, N.D. denotes the concentration of the test compound in CSF that is no higher than the detection limit.)

[3] = fp by ultracentrifugation method

T1 sequence (P48039 whole entry): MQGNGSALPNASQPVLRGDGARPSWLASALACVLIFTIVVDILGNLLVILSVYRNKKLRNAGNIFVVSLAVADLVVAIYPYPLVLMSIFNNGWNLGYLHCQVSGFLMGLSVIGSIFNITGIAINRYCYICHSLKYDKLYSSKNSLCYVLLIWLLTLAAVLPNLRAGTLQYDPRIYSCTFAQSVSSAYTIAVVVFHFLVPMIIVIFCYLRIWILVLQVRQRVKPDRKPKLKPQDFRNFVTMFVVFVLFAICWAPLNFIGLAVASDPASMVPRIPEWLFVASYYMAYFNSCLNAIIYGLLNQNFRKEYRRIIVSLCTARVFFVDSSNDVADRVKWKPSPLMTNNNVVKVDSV

| Structure (SMILES) | Kp at 0.25 h [1] | EC50 (human MT1 receptor) [nM] | Emax (human MT1 receptor) [%] | EC50 (human MT2 receptor) [nM] | Emax (human MT2 receptor) [%] | Kp uu at 0.25 h [2, 3] | Kp uu at 0.25 h ([2]; fp by equilibrium dialysis method) |
| --- | --- | --- | --- | --- | --- | --- | --- |
| CC(=O)NCCc1c[nH]c2ccc(OCCn3ccc(C(F)(F)F)n3)cc12 [Example 4, N-[2-(5-{2-[3-(trifluoromethyl)-1H-pyrazol-1-yl]ethoxy}-1H-indol-3-yl)ethyl]acetamide] | 0.29 | 18 | 102 | 33 | 102 | 0.11 |  |
| COc1ccc(OCCOc2ccc3[nH]cc(CCNC(C)=O)c3c2)cn1 [Example 5, N-[2-(5-{2-[(6-methoxypyridin-3-yl)oxy]ethoxy}-1H-indol-3-yl)ethyl]acetamide] | 0.089 | 13 | 89 | 150 | 48 | 0.1 |  |
| CC(=O)NCCc1c(C)[nH]c2ccc(OCCOc3ccn(C)n3)cc12 [Example 7, N-[2-(2-methyl-5-{2-[(1-methyl-1H-pyrazol-3-yl)oxy]ethoxy}-1H-indol-3-yl)ethyl]acetamide] | 0.03 | 18 | 90 | 22 | 125 | 0.14 |  |
| CCC(=O)NCCc1c[nH]c2ccc(OCCOc3ccn(C)n3)cc12 [Example 8, N-[2-(5-{2-[(1-methyl-1H-pyrazol-3-yl)oxy]ethoxy}-1H-indol-3-yl)ethyl]propanamide] | 0.04 | 9.1 | 93 | 12 | 107 | 0.08 |  |
| CNC(=O)NCCc1c(C)[nH]c2ccc(OCCOc3ccnc(C)c3)cc12 [Example 9, 1-methyl-3-[2-(2-methyl-5-{2-[(2-methylpyridin-4-yl)oxy]ethoxy}-1H-indol-3-yl)ethyl]urea] | 0.01 | 9.9 | 84 | 32 | 116 |  |  |
| CNC(=O)NCCc1c(C)[nH]c2ccc(OCCOc3ccn(C)n3)cc12 [Example 10, 1-methyl-3-[2-(2-methyl-5-{2-[(1-methyl-1H-pyrazol-3-yl)oxy]ethoxy}-1H-indol-3-yl)ethyl]urea] | 0.02 | 8.3 | 95 | 21 | 117 | 0.07 |  |
| CC(=O)NCCc1c[nH]c2ccc(OCCOc3cccc(C)n3)cc12 [Example 11, N-[2-(5-{2-[(6-methylpyridin-2-yl)oxy]ethoxy}-1H-indol-3-yl)ethyl]acetamide] |  | 0.71 | 107 | 2.4 | 99 | 0.05 |  |
| CC(=O)NCCc1c(C)[nH]c2cc(F)c(OCCOc3ccn(C)n3)cc12 [Example 13, N-[2-(6-fluoro-2-methyl-5-{2-[(1-methyl-1H-pyrazol-3-yl)oxy]ethoxy}-1H-indol-3-yl)ethyl]acetamide] |  | 4.3 | 105 | 7 | 110 | 0.03 |  |
| CCC(=O)NCCc1c(C)[nH]c2ccc(OCCn3ccc(C)n3)cc12 [Example 15, N-(2-{2-methyl-5-[2-(3-methyl-1H-pyrazol-1-yl)ethoxy]-1H-indol-3-yl}ethyl)propanamide] |  | 8.4 | 106 | 12 | 110 | 0.04 |  |
| CC(=O)NCCc1c(C)[nH]c2ccc(OCCOc3ccnc(C)c3)cc12 [Example 18, N-[2-(2-methyl-5-{2-[(2-methylpyridin-4-yl)oxy]ethoxy}-1H-indol-3-yl)ethyl]acetamide] | 0.03 | 7.7 | 89 | 21 | 123 | 0.11 |  |
| CNC(=O)NCCc1c[nH]c2ccc(OCCOc3ccc(OC)nc3)cc12 [Example 23, 1-[2-(5-{2-[(6-methoxypyridin-3-yl)oxy]ethoxy}-1H-indol-3-yl)ethyl]-3-methylurea] | 0.03 | 21 | 87 | 54 | 68 | 0.04 |  |
| CNC(=O)NCCc1c(C)[nH]c2ccc(OCCOc3ccc(OC)nc3)cc12 [Example 31, 1-[2-(5-{2-[(6-methoxypyridin-3-yl)oxy]ethoxy}-2-methyl-1H-indol-3-yl)ethyl]-3-methylurea] |  | 1.4 | 104 | 28 | 88 | 0.01 |  |
| CC(=O)NC[C@H](C)c1c[nH]c2cc(F)c(OCCOc3ccn(C)n3)cc12 [Example 37, N-[(2R)-2-(6-fluoro-5-{2-[(1-methyl-1H-pyrazol-3-yl)oxy]ethoxy}-1H-indol-3-yl)propyl]acetamide] | 0.01 | 2.1 | 105 | 7.1 | 104 |  | 0.08 |
| CNC(=O)NCCc1c[nH]c2ccc(OCCOc3cncc(Cl)c3)cc12 [Example 56] |  | 15 | 92 | 9.9 | 125 |  |  |
| CC(=O)NCCc1c[nH]c2ccc(OCCOc3cncc(F)c3)cc12 [Example 57] |  | 12 | 94 | 13 | 114 |  |  |
| CNC(=O)NCCc1c[nH]c2ccc(OCCOc3cccc(C)n3)cc12 [Example 58] |  | 1.2 | 99 | 3.4 | 99 |  |  |
| CC(=O)NCCc1c[nH]c2ccc(OCCOc3ccnc(C)c3)cc12 [Example 59] |  | 6.6 | 120 | 9.6 | 99 |  |  |
| CC(=O)NCCc1c[nH]c2ccc(OCCOc3cccc(C4CC4)n3)cc12 [Example 60] |  | 7.2 | 94 | 9.2 | 104 |  |  |
| CCCc1cccc(OCCOc2ccc3[nH]cc(CCNC(C)=O)c3c2)n1 [Example 61] |  | 6.9 | 84 | 5.4 | 92 |  |  |
| CC(=O)NCCc1c[nH]c2ccc(OCCOc3nccc(C(F)(F)F)n3)cc12 [Example 62] |  | 11 | 101 | 16 | 118 |  |  |
| CC(=O)NCCc1c[nH]c2ccc(OCCOc3ccon3)cc12 [Example 63] |  | 9.7 | 90 | 9 | 105 |  |  |
| CC(=O)NCCc1c[nH]c2ccc(OCCOc3ccccn3)cc12 [Example 64] |  | 1.6 | 102 | 2.1 | 116 |  |  |

Source: patent US9637451B2, “Indole compound” (ASTELLAS PHARMA INC., priority 2014, dated 2017)
